Read-outs that look alike come from different tables or passages of the source. Values belong to the compound of their own block, whether it stands above or below them.
How the values were obtained:
[1] = test system: human colon cancer xenograft model SW620; test: CRC xenograft model, ATM inhibitors in combination with irinotecan; type: in vivo, mice
Description: Animals were treated with three 1-week cycles of a combination of irinotecan and the respective ATM inhibitors, or the respective monotherapy control arms. One cycle consisted of one irinotecan application (ip) at a dose of 50 mg/kg, followed by 100, and 50 mg/kg of ATMi 1, or 10 and 25 mg/kg of ATMi 2 (po) 24 h later and for four subsequent days.

colon cancer cell line [2] = test: GI50 of SN38 and of the combination with ATMi2; type: cell-based
colon cancer cell line [3] = test: Immunogenic cell death induction (calreticulin, HSP70, HSP90 surface expression, ATP and HMGB1 release, caspase-3/7); type: cell-based
Description: […]. The inhibitor for ATM and SN38 were tested as single agents and in combination at the concentrations of the GI50 of the combination. The GI50 of SN38 was included as a positive control for induction of immunogenic cell death. […] Cell surface expression of calreticulin, HSP70 and HSP90 was analysed by Flow Cytometry, ATP secretion by ATPlite assay Perkin Elmer, HMGB1 release by HMGB1 Elisa (IBL International) and apoptosis by Caspase-Glo 3/7 Assay Systems (measures caspase-3/7 activities).
Analyses of DAMPs (Calreticulin, HSP70, HSP90, HMGB1 and ATP) were carried out whithin the same sample. Cells were treated 24 hours after seeding and analyses performed 72 hours post-treatment. Cells were used for FACS analyses and supenatants for ATP and HMGB1 measurements. Caspase-Glo 3/7 was carried out in parallel following the same treatment schedule.
For FACS analyses, an unstained sample was used as a gating control and an isotype sample to measure unspecific antibody binding. % PE positive cells represent cells with cell surface expression of the tested marker (all markers were conjugated with PE and tested independently). ATP secretion, HMGB1 release and apoptosis were carried out accordingly to the protocols provided by the commercial supplier (data represented as the average of two independent biological repeats).

[4] = combination ATMi 2 25 mg/kg + irinotecan, d28
[5] = combination ATMi 2 25 mg/kg po + irinotecan 50 mg/kg ip, day 21

GI50 (colon cancer cell line [2]; in combination with 0.4 nM SN38, read-out: GI50 of the combination (ATMi2 concentration)): 250 nM
Compound: COc1cc2ncc3c(c2cc1-c1cn(C)nc1C)n(-c1c(F)cncc1OC)c(=O)n3C [ATMi 2, 8-(1,3-Dimethyl-1H-pyrazol-4-yl)-1-(3-fluoro-5-methoxy-pyridin-4-yl)-7-methoxy-3-methyl-1,3-dihydro-imidazo[4,5-c]quinolin-2-one]
partial responses (tumor volume >30% decrease) [1, 4]: 2/10
stable diseases (tumor volume change between 30% decrease and 73% increase) [1, 4]: 3/10
animals progression free (<73% increase in tumor volume compared to starting volume) ([1]; combination ATMi 2 25 mg/kg + irinotecan, d28, one week after stop of treatment): 5/10
decrease of mean tumor volume compared to starting volume [1, 5]: ~87%
mean tumor volume [1, 5]: 53 mm^3
induction of immunogenic cell death (colon cancer cell line [3]; ATMi2 single agent at 250 nM, 72 hours post-treatment): not
induction of immunogenic cell death (colon cancer cell line [3]; combination 250 nM ATMi2 + 0.4 nM SN38, 72 hours post-treatment): clear induction of immunogenic cell death

Compound: CCc1c2c(nc3ccc(O)cc13)-c1cc3c(c(=O)n1C2)COC(=O)[C@]3(O)CC [SN38, reference compound]
GI50 (colon cancer cell line [2]; SN38 as single agent, read-out: GI50): 2 nM
GI50 (colon cancer cell line [2]; in combination with 250 nM ATMi2, read-out: GI50 of the combination (SN38 concentration)): 0.4 nM
induction of immunogenic cell death (colon cancer cell line [3]; SN38 at its GI50 (2 nM), 72 hours post-treatment): clear induction of immunogenic cell death
induction of immunogenic cell death (colon cancer cell line [3]; SN38 single agent at 0.4 nM, 72 hours post-treatment): not

Compound: CCc1c2c(nc3ccc(OC(=O)N4CCC(N5CCCCC5)CC4)cc13)-c1cc3c(c(=O)n1C2)COC(=O)[C@]3(O)CC [irinotecan, reference compound]
disease status ([1]; irinotecan arm, day 28): all animals showed progressive disease

From patent publication US20210353614A1, “COMPOUNDS AND USES THEREOF TO TREAT TUMORS IN A SUBJECT” (Merck Patent GMBH, priority 2018, published 2021)
